In PubChem BioAssay AID743235 (The Scripps Research Institute Molecular Screening Center, 2013):
Calls of active or inactive are those of the source. No rule for the calls is given here.

system: Counterscreen cells for TAAR1 agonist assay, fluorescence; test: agonism at human TAAR1, counter-screen – cell-based, fluorescence, counter-screen for TAAR1 antagonist project, late-stage follow-up (AID 743235)

SMILES | EC50
O=C(NCCn1cc(SCc2ccccc2F)c2ccccc21)c1c(F)cccc1F | > 29.9 µM (inactive)
CCOC(=O)C1CCCN(c2c(C(=O)c3ccccc3)cnc3ccc(OC)cc23)C1 (stereo unspecified) | 20.1 µM (inactive)
Cc1cccc(C(C#N)c2nc3ccccc3nc2C(F)(F)F)c1 (stereo unspecified) | > 29.9 µM (inactive)
COc1cccc(-c2nn(-c3ccccc3)cc2C(=O)Nc2nccs2)c1 | > 29.9 µM (inactive)
COc1cc(NC(=O)c2cc3ccccc3o2)c(OC)cc1Cl | > 29.9 µM (inactive)
Cc1ccc(CSCC(=O)Nc2cc(S(=O)(=O)N3CCOCC3)ccc2OCC(F)(F)F)cc1 | > 29.9 µM (inactive)
